Assays:
[1] = xn = mol fraction of the nth substance listed; settings: Fluid (supercritical or subcritical phases), isochoric method, x1 = 0.489
[2] = molar heat capacity at constant volume; xn = mol fraction of the nth substance listed; settings: Fluid (supercritical or subcritical phases), Vacuum adiabatic calorimetry, x1 = 0.489

F/C=C/C(F)(F)F [trans-1,3,3,3-tetrafluoropropene] + O=C=O
Settings	mass density, [1] [kg/m3]	molar heat capacity at constant volume, [2] [J/K/mol]
270.15 K, 10302 kPa	1191.8	74.42
275.15 K, 14848 kPa	1191	74.81
280.15 K, 19370 kPa	1190.1	75.36
285.15 K, 23857 kPa	1189.2	75.44
286.15 K, 24752 kPa	1189	77.71
290.15 K, 7501 kPa	1115.7	76.77
290.15 K, 28318 kPa	1188.3	75.75
295.15 K, 11107 kPa	1115	77.86
300.15 K, 14713 kPa	1114.2	78.41
301.15 K, 15434 kPa	1114.1	78.57
302.15 K, 16154 kPa	1114	78.33
303.15 K, 16872 kPa	1113.8	77.63
306.15 K, 19026 kPa	1113.3	76.61
310.15 K, 21888 kPa	1112.7	79.59
315.15 K, 25455 kPa	1112	79.12
320.15 K, 9139 kPa	1003.8	75.59
320.15 K, 28987 kPa	1111.2	78.18
325.15 K, 11633 kPa	1003.2	76.38
330.15 K, 14125 kPa	1002.7	75.99
335.15 K, 16616 kPa	1002.1	74.81
340.15 K, 19103 kPa	1001.6	74.81
345.15 K, 21584 kPa	1001	76.85
350.15 K, 24061 kPa	1000.4	76.46
355.15 K, 26532 kPa	999.9	76.53
360.15 K, 28998 kPa	999.3	78.8
361.15 K, 7303 kPa	648.9	98.76
365.15 K, 7938 kPa	648.7	97.58
370.15 K, 8742 kPa	648.5	100.71
375.15 K, 9557 kPa	648.3	103.3
380.15 K, 10380 kPa	648.1	104.86
385.15 K, 11211 kPa	647.9	104.47
390.15 K, 12047 kPa	647.6	106.11
395.15 K, 12887 kPa	647.4	107.91
400.15 K, 13731 kPa	647.2	103.92
405.15 K, 14576 kPa	647	102.28
410.15 K, 15424 kPa	646.8	97.11
415.15 K, 16273 kPa	646.6	93.67
420.15 K, 17122 kPa	646.3	92.5
425.15 K, 17972 kPa	646.1	91.79

— the NIST ThermoML archive (doi:10.1021/je101209e)
